Assays:
Test in all cases: KINOMEscan
Format in all cases: binding
Settings in all cases: 10000 nM; read-out: Percent Control
[1] = target: T1, ABL1(E255K)-phosphorylated (Homo sapiens, UniProt P00519, E255K)
T1 construct: purchased DiscoverX KINOMEscan scanEDGE; Eurofins Cerep SafetyScreen87
Procedure: (§1) The possibility of KDS12025 on kinase off-target, the KINOMEscan panel of scanEDGE assay was conducted in DiscoverX (CA, USA) using a site-directed competition binding with the test compounds. The assay results are given in Supplementary Table 4 and experimental information is available on the DiscoverX web page (www.discoverx.com). Moreover, the Delta SafetyScreen87 panel assay was conducted in Eurofins Discovery (Cerep, France). The assay results are given in Supplementary Table 5 and experimental information is available on the DiscoverX web page (https://www.eurofinsdiscoveryservices.com).

ACVR1B = target: T2, ACVR1B (Homo sapiens, UniProt P36896)
T2 construct: purchased DiscoverX KINOMEscan scanEDGE; Eurofins Cerep SafetyScreen87
Procedure: as §1

ADCK3 = target: T3, ADCK3 (Homo sapiens, UniProt Q8NI60)
T3 construct: purchased DiscoverX KINOMEscan scanEDGE; Eurofins Cerep SafetyScreen87
Procedure: as §1

AKT1 = target: T4, AKT1 (Homo sapiens, UniProt P31749)
T4 construct: purchased DiscoverX KINOMEscan scanEDGE; Eurofins Cerep SafetyScreen87
Procedure: as §1

AKT2 = target: T5, AKT2 (Homo sapiens, UniProt P31751)
T5 construct: purchased DiscoverX KINOMEscan scanEDGE; Eurofins Cerep SafetyScreen87
Procedure: as §1

AURKA = target: T6, AURKA (Homo sapiens, UniProt O14965)
T6 construct: purchased DiscoverX KINOMEscan scanEDGE; Eurofins Cerep SafetyScreen87
Procedure: as §1

BMPR2 = target: T7, BMPR2 (Homo sapiens, UniProt Q13873)
T7 construct: purchased DiscoverX KINOMEscan scanEDGE; Eurofins Cerep SafetyScreen87
Procedure: as §1

CSNK1G2 = target: T8, CSNK1G2 (Homo sapiens, UniProt P78368)
T8 construct: purchased DiscoverX KINOMEscan scanEDGE; Eurofins Cerep SafetyScreen87
Procedure: as §1

ERBB4 = target: T9, ERBB4 (Homo sapiens, UniProt Q15303)
T9 construct: purchased DiscoverX KINOMEscan scanEDGE; Eurofins Cerep SafetyScreen87
Procedure: as §1

FAK = target: T10, FAK (Homo sapiens, UniProt Q05397)
T10 construct: purchased DiscoverX KINOMEscan scanEDGE; Eurofins Cerep SafetyScreen87
Procedure: as §1

FGFR2 = target: T11, FGFR2 (Homo sapiens, UniProt P21802)
T11 construct: purchased DiscoverX KINOMEscan scanEDGE; Eurofins Cerep SafetyScreen87
Procedure: as §1

FGFR3 = target: T12, FGFR3 (Homo sapiens, UniProt P22607)
T12 construct: purchased DiscoverX KINOMEscan scanEDGE; Eurofins Cerep SafetyScreen87
Procedure: as §1

FLT3 = target: T13, FLT3 (Homo sapiens, UniProt P36888)
T13 construct: purchased DiscoverX KINOMEscan scanEDGE; Eurofins Cerep SafetyScreen87
Procedure: as §1

GSK3B = target: T14, GSK3B (Homo sapiens, UniProt P49841)
T14 construct: purchased DiscoverX KINOMEscan scanEDGE; Eurofins Cerep SafetyScreen87
Procedure: as §1

IGF1R = target: T15, IGF1R (Homo sapiens, UniProt P08069)
T15 construct: purchased DiscoverX KINOMEscan scanEDGE; Eurofins Cerep SafetyScreen87
Procedure: as §1

IKK-alpha = target: T16, IKK-alpha (Homo sapiens, UniProt O15111)
T16 construct: purchased DiscoverX KINOMEscan scanEDGE; Eurofins Cerep SafetyScreen87
Procedure: as §1

[2] = target: T17, JAK3(JH1domain-catalytic) (Homo sapiens, UniProt P52333)
T17 construct: JAK3(JH1domain-catalytic); purchased DiscoverX KINOMEscan scanEDGE; Eurofins Cerep SafetyScreen87
Procedure: as §1

MAP3K4 = target: T18, MAP3K4 (Homo sapiens, UniProt Q9Y6R4)
T18 construct: purchased DiscoverX KINOMEscan scanEDGE; Eurofins Cerep SafetyScreen87
Procedure: as §1

MKNK1 = target: T19, MKNK1 (Homo sapiens, UniProt Q9BUB5)
T19 construct: purchased DiscoverX KINOMEscan scanEDGE; Eurofins Cerep SafetyScreen87
Procedure: as §1

MLK1 = target: T20, MLK1 (Homo sapiens, UniProt P80192)
T20 construct: purchased DiscoverX KINOMEscan scanEDGE; Eurofins Cerep SafetyScreen87
Procedure: as §1

PAK2 = target: T21, PAK2 (Homo sapiens, UniProt Q13177)
T21 construct: purchased DiscoverX KINOMEscan scanEDGE; Eurofins Cerep SafetyScreen87
Procedure: as §1

PAK4 = target: T22, PAK4 (Homo sapiens, UniProt O96013)
T22 construct: purchased DiscoverX KINOMEscan scanEDGE; Eurofins Cerep SafetyScreen87
Procedure: as §1

PCTK1 = target: T23, PCTK1 (Homo sapiens, UniProt Q00536)
T23 construct: purchased DiscoverX KINOMEscan scanEDGE; Eurofins Cerep SafetyScreen87
Procedure: as §1

PDPK1 = target: T24, PDPK1 (Homo sapiens, UniProt O15530)
T24 construct: purchased DiscoverX KINOMEscan scanEDGE; Eurofins Cerep SafetyScreen87
Procedure: as §1

PIK3C2B = target: T25, PIK3C2B (Homo sapiens, UniProt O00750)
T25 construct: purchased DiscoverX KINOMEscan scanEDGE; Eurofins Cerep SafetyScreen87
Procedure: as §1

PKAC-alpha = target: T26, PKAC-alpha (Homo sapiens, UniProt P17612)
T26 construct: purchased DiscoverX KINOMEscan scanEDGE; Eurofins Cerep SafetyScreen87
Procedure: as §1

PLK3 = target: T27, PLK3 (Homo sapiens, UniProt Q9H4B4)
T27 construct: purchased DiscoverX KINOMEscan scanEDGE; Eurofins Cerep SafetyScreen87
Procedure: as §1

PLK4 = target: T28, PLK4 (Homo sapiens, UniProt O00444)
T28 construct: purchased DiscoverX KINOMEscan scanEDGE; Eurofins Cerep SafetyScreen87
Procedure: as §1

RAF1 = target: T29, RAF1 (Homo sapiens, UniProt P04049)
T29 construct: purchased DiscoverX KINOMEscan scanEDGE; Eurofins Cerep SafetyScreen87
Procedure: as §1

ROCK2 = target: T30, ROCK2 (Homo sapiens, UniProt O75116)
T30 construct: purchased DiscoverX KINOMEscan scanEDGE; Eurofins Cerep SafetyScreen87
Procedure: as §1

[3] = target: T31, RSK2(Kin.Dom.1-N-terminal) (Homo sapiens, UniProt P51812)
T31 construct: RSK2(Kin.Dom.1-N-terminal); purchased DiscoverX KINOMEscan scanEDGE; Eurofins Cerep SafetyScreen87
Procedure: as §1

TGFBR1 = target: T32, TGFBR1 (Homo sapiens, UniProt P36897)
T32 construct: purchased DiscoverX KINOMEscan scanEDGE; Eurofins Cerep SafetyScreen87
Procedure: as §1

TIE2 = target: T33, TIE2 (Homo sapiens, UniProt Q02763)
T33 construct: purchased DiscoverX KINOMEscan scanEDGE; Eurofins Cerep SafetyScreen87
Procedure: as §1

TSSK1B = target: T34, TSSK1B (Homo sapiens, UniProt Q9BXA7)
T34 construct: purchased DiscoverX KINOMEscan scanEDGE; Eurofins Cerep SafetyScreen87
Procedure: as §1

[4] = target: T35, TYK2(JH1domain-catalytic) (Homo sapiens, UniProt P29597)
T35 construct: TYK2(JH1domain-catalytic); purchased DiscoverX KINOMEscan scanEDGE; Eurofins Cerep SafetyScreen87
Procedure: as §1

ULK2 = target: T36, ULK2 (Homo sapiens, UniProt Q8IYT8)
T36 construct: purchased DiscoverX KINOMEscan scanEDGE; Eurofins Cerep SafetyScreen87
Procedure: as §1

YANK3 = target: T37, YANK3 (Homo sapiens, UniProt Q86UX6)
T37 construct: purchased DiscoverX KINOMEscan scanEDGE; Eurofins Cerep SafetyScreen87
Procedure: as §1

p38-alpha = target: T38, p38-alpha (Homo sapiens, UniProt Q16539)
T38 construct: purchased DiscoverX KINOMEscan scanEDGE; Eurofins Cerep SafetyScreen87
Procedure: as §1

p38-beta = target: T39, p38-beta (Homo sapiens, UniProt Q15759)
T39 construct: purchased DiscoverX KINOMEscan scanEDGE; Eurofins Cerep SafetyScreen87
Procedure: as §1

T13 sequence (P36888 27-993): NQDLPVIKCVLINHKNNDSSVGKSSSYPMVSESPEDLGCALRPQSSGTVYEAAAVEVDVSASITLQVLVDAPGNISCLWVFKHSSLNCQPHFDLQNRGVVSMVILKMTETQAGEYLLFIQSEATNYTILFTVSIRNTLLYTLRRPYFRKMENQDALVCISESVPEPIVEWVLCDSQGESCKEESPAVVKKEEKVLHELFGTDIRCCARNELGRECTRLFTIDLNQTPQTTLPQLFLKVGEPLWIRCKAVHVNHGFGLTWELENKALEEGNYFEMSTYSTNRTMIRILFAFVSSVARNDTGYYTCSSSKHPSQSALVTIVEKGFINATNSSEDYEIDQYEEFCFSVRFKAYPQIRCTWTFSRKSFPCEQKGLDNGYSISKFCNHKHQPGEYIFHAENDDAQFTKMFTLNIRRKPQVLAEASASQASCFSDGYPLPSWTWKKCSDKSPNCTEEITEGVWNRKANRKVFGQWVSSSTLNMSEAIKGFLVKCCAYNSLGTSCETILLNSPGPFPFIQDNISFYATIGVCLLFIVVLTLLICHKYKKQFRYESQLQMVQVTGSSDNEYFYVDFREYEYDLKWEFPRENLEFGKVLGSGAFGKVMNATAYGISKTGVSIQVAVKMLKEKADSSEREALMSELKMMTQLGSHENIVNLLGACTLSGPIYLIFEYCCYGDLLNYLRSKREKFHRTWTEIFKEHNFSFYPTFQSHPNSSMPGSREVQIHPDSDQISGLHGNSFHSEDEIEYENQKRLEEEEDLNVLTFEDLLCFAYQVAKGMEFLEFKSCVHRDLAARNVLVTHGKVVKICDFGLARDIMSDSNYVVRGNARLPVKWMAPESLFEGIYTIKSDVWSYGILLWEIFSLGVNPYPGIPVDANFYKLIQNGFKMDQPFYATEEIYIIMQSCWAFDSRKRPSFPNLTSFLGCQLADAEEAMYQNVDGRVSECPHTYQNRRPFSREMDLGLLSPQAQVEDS
T17 sequence (P52333 811-1124 limits assumed): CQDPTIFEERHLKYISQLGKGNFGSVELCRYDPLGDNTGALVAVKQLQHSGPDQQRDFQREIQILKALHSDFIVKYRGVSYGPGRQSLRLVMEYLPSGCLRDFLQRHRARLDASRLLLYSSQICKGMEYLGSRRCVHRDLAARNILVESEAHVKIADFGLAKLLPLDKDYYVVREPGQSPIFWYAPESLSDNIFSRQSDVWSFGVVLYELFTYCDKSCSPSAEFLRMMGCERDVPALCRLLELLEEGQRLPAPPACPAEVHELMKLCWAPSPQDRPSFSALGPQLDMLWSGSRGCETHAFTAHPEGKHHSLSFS
T9 sequence (Q15303 26-1308): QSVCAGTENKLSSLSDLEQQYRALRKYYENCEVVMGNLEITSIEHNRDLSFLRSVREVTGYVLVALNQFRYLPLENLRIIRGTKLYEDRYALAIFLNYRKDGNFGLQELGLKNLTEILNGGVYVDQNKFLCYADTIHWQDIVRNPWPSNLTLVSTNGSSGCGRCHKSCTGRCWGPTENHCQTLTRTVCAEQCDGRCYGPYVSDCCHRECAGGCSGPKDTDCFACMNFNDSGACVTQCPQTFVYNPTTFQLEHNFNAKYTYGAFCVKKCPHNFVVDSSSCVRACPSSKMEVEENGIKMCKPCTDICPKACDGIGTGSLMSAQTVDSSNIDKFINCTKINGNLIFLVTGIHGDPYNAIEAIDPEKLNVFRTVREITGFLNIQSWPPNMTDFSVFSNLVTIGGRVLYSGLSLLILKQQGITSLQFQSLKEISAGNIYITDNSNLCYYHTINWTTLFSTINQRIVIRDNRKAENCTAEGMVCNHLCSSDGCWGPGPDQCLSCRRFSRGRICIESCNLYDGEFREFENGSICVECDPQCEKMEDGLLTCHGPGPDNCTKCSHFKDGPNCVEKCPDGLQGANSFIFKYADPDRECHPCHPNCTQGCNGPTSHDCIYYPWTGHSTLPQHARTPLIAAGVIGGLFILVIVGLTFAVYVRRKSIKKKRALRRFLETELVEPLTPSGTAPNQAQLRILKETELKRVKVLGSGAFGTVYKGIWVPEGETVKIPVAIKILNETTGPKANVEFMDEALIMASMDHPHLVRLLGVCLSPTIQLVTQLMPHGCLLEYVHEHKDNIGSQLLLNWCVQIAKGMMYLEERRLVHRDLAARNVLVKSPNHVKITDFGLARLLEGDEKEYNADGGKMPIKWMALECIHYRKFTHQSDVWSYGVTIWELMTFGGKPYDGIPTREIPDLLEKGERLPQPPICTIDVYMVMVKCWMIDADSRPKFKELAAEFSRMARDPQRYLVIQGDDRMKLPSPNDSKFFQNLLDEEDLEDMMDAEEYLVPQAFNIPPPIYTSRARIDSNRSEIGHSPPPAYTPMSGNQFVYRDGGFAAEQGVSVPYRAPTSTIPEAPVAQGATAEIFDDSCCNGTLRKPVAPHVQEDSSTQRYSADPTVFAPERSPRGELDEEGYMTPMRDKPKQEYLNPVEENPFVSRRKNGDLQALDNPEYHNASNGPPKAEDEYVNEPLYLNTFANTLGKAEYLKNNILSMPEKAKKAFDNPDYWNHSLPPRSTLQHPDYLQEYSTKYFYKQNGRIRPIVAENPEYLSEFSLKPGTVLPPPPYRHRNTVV
T25 sequence (O00750 whole entry): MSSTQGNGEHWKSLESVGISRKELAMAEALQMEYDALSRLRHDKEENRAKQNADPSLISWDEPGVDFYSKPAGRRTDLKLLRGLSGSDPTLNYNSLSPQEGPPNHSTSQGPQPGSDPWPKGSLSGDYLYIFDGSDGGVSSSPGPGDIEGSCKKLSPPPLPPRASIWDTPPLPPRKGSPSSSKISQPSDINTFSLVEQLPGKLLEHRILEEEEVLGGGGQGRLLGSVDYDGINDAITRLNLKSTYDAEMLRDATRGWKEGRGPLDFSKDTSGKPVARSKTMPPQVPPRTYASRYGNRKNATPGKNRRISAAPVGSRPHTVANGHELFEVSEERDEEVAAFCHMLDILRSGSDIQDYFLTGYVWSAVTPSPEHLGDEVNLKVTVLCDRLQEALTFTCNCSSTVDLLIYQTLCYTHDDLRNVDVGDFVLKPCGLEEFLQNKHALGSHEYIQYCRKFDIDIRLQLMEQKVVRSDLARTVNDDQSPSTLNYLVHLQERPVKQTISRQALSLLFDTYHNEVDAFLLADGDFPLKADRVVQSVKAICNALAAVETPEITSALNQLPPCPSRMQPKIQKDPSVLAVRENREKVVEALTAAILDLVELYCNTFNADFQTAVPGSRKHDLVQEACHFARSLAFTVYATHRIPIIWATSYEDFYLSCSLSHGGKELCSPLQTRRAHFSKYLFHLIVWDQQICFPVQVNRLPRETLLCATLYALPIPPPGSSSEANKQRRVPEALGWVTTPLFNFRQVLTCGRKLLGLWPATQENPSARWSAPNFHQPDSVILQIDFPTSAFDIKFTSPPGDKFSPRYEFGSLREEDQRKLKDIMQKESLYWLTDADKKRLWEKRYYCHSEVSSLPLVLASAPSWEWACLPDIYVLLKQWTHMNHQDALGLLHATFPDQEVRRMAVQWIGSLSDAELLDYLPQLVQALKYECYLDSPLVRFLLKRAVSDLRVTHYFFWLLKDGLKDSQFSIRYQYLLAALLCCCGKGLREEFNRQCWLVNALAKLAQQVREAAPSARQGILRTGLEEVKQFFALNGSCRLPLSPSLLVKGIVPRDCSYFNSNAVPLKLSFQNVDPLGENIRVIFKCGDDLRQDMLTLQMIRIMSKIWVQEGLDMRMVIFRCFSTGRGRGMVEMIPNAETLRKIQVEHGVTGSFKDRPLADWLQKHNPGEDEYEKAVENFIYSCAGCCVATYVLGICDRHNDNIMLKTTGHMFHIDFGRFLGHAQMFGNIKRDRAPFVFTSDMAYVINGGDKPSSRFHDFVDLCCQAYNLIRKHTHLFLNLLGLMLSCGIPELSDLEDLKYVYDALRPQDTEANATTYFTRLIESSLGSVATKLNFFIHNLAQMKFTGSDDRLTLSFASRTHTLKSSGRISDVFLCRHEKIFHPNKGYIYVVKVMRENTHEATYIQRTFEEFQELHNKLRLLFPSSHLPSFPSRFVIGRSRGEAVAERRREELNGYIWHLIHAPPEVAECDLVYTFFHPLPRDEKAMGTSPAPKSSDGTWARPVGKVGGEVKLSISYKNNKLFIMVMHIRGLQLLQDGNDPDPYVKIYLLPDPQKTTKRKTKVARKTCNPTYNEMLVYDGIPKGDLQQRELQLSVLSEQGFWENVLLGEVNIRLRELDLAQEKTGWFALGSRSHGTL
T27 sequence (Q9H4B4 whole entry): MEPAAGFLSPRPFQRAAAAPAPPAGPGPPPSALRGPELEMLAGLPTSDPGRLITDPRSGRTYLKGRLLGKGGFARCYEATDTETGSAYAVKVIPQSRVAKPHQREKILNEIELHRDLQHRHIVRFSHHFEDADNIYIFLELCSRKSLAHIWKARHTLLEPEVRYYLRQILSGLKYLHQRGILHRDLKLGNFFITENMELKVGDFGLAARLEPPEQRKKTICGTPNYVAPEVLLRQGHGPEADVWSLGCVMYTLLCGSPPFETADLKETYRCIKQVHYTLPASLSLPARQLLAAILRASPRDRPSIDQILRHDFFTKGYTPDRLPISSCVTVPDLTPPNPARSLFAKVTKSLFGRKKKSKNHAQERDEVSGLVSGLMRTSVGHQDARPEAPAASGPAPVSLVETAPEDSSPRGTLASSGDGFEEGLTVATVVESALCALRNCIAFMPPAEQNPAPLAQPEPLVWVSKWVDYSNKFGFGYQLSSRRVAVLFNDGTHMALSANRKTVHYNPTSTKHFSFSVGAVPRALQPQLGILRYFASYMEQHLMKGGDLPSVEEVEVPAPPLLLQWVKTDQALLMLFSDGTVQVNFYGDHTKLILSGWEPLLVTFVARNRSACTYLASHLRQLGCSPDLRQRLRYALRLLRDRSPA

Q: How did the remaining binding at 10 µM [1] turn out when `CNc1ccc(NCCc2ccccc2OC)cc1.Cl` [KDS12025, N^1-(2-methoxyphenethyl)-N^4-methylbenzene-1,4-diamine hydrochloride salt] was run?
A: 100%

Q: And the remaining binding at 10 µM (ACVR1B)?
A: 100%

Q: What about the remaining binding at 10 µM (ADCK3) of the same compound?
A: 93%

Q: And the remaining binding at 10 µM (AKT1)?
A: 75%

Q: And the remaining binding at 10 µM (AKT2)?
A: 94%

Q: And the remaining binding at 10 µM (AURKA)?
A: 86%

Q: What about the remaining binding at 10 µM (BMPR2) of the same compound?
A: 92%

Q: What about the remaining binding at 10 µM (CSNK1G2) of the same compound?
A: 45%

Q: What about the remaining binding at 10 µM (ERBB4) of the same compound?
A: 92%

Q: What about the remaining binding at 10 µM (FAK) of the same compound?
A: 100%

Q: And the remaining binding at 10 µM (FGFR2)?
A: 87%

Q: What about the remaining binding at 10 µM (FGFR3) of the same compound?
A: 91%

Q: What about the remaining binding at 10 µM (FLT3) of the same compound?
A: 100%

Q: What about the remaining binding at 10 µM (GSK3B) of the same compound?
A: 95%

Q: What about the remaining binding at 10 µM (IGF1R) of the same compound?
A: 84%

Q: And the remaining binding at 10 µM (IKK-alpha)?
A: 100%

Q: And the remaining binding at 10 µM [2]?
A: 76%

Q: And the remaining binding at 10 µM (MAP3K4)?
A: 100%

Q: And the remaining binding at 10 µM (MKNK1)?
A: 100%

Q: And the remaining binding at 10 µM (MLK1)?
A: 79%

Q: What about the remaining binding at 10 µM (PAK2) of the same compound?
A: 94%

Q: And the remaining binding at 10 µM (PAK4)?
A: 100%

Q: And the remaining binding at 10 µM (PCTK1)?
A: 94%

Q: And the remaining binding at 10 µM (PDPK1)?
A: 56%

Q: What about the remaining binding at 10 µM (PIK3C2B) of the same compound?
A: 91%

Q: What about the remaining binding at 10 µM (PKAC-alpha) of the same compound?
A: 74%

Q: And the remaining binding at 10 µM (PLK3)?
A: 75%

Q: And the remaining binding at 10 µM (PLK4)?
A: 77%

Q: And the remaining binding at 10 µM (RAF1)?
A: 95%

Q: What about the remaining binding at 10 µM (ROCK2) of the same compound?
A: 85%

Q: And the remaining binding at 10 µM [3]?
A: 84%

Q: And the remaining binding at 10 µM (TGFBR1)?
A: 96%

Q: What about the remaining binding at 10 µM (TIE2) of the same compound?
A: 100%

Q: What about the remaining binding at 10 µM (TSSK1B) of the same compound?
A: 45%

Q: What about the remaining binding at 10 µM [4] of the same compound?
A: 93%

Q: What about the remaining binding at 10 µM (ULK2) of the same compound?
A: 95%

Q: What about the remaining binding at 10 µM (YANK3) of the same compound?
A: 83%

Q: What about the remaining binding at 10 µM (p38-alpha) of the same compound?
A: 100%

Q: And the remaining binding at 10 µM (p38-beta)?
A: 100%

From publication PMC12373846, “Hemoglobin as a pseudoperoxidase and drug target for oxidative stress-related diseases” (Signal Transduction and Targeted Therapy, 2025)
